Read-outs that look alike come from different tables or passages of the source.
System: SVR cells
Assay: SVR cell assay: cell numbers counted at 48 hours, percent inhibition versus control
Type: cell-based, murine
Settings: for inhibition at 1 µg/mL / inhibition at 3 µg/mL / inhibition at 6 µg/mL / inhibition at 9 µg/mL: Mus musculus; for inhibition at 1 µg/mL: read-out: Percent Inhibition at a Specified Density (μg/ml): 1; for inhibition at 3 µg/mL: read-out: Percent Inhibition at a Specified Density (μg/ml): 3; for inhibition at 6 µg/mL: read-out: Percent Inhibition at a Specified Density (μg/ml): 6; for inhibition at 9 µg/mL: read-out: Percent Inhibition at a Specified Density (μg/ml): 9
[1] = 3 μg/ml, 10,000 SVR cells in 24 well dish, counted at 48 hours
[2] = 6 μg/ml, 10,000 SVR cells in 24 well dish, counted at 48 hours
[3] = 9 μg/ml, 10,000 SVR cells in 24 well dish, counted at 48 hours
[4] = 1 μg/ml, 10,000 SVR cells in 24 well dish, counted at 48 hours

Method: In the case of testing the anti-angiogenic/anti-cancer activity of compounds according to the present invention, an assay based on SVR cells may be employed. […] The cell numbers are counted and compared against controls. Percent inhibition is readily determined from the data obtained.
10,000 SVR cells were seeded in a 24 well dish [Arbiser, et al., J. Am. […] The cell numbers were counted at 48 hours.

| Molecule | inhibition at 1 µg/mL [4] [%] | inhibition at 3 µg/mL [1] [%] | inhibition at 6 µg/mL [2] [%] | also measured |
| --- | --- | --- | --- | --- |
| 2-(2-Naphthylidene)tetralone [Compound 71] |  |  |  | Percent Inhibition at a Specified Density (μg/ml): 3 [1]: 82.8%; Percent Inhibition at a Specified Density (μg/ml): 6 [2]: 88.7%; Percent Inhibition at a Specified Density (μg/ml): 9 [3]: 87.1% |
| O=C(/C=C/c1ccccc1)c1ccccc1 [Compound 1, Chalcone] | 71.6 | 92.8 | 94.4 |  |
| COc1ccc(/C=C/C(=O)c2ccc(OC)cc2)cc1 [Compound 2, 4,4′-Dimethoxychalcone] | 29.1 | 63.4 | 85.2 |  |
| O=C(/C=C/c1ccccc1)/C=C/c1ccccc1 [Compound 3, 1,5-Diphenyl-1E,4E-pentadien-3-one] | 79.3 | 96.8 | 96.8 |  |
| O=C1C(=Cc2ccccc2)CCC1=Cc1ccccc1 [Compound 4, 2,5-(Dibenzylidene)cyclopentanone] |  |  |  | Percent Inhibition at a Specified Density (μg/ml): 1 [4]: 19.6%; Percent Inhibition at a Specified Density (μg/ml): 3 [1]: 23.8%; Percent Inhibition at a Specified Density (μg/ml): 6 [2]: 38.6% |
| CC(=O)/C=C/c1ccccc1 [Compound 5, 4-Phenyl-3E-buten-2-one] |  |  |  | inhibition at 1 µg/mL (SVR, 48 h): 41.9%; inhibition at 3 µg/mL (SVR, 48 h): 69%; inhibition at 6 µg/mL (SVR, 48 h): 64% |
| O=C1CCCCC1=Cc1ccccc1 [Compound 7, 2-(Benzylidene)cyclohexanone] | 23 | 29.5 | 72.4 |  |
| O=C1C(=Cc2ccccc2)C(=O)c2ccccc21 [Compound 8, 2-(Benzylidene)-1,3-indanedione] | 91.1 | 14 | 34 |  |
| CC(=O)C(=Cc1ccccc1)C(C)=O [Compound 9, 3-Benzylidene-2,4-pentanedione] | 48.3 | 72 | 82.7 |  |
| O=C(O)/C=C/c1ccccc1 [Compound 10, trans-Cinnamic Acid, reference compound] | 18.6 | 14.1 | 69.6 |  |
| O=C(O)C=Cc1ccc(Br)cc1 [Compound 11, para-Bromocinnamic Acid, reference compound] | 18.2 | 3.5 | 0 |  |
| CC(=O)c1cc2cc(Br)ccc2oc1=O [Compound 12, 3-Acetyl-6-bromocoumarin, reference compound] | 20 | 12.7 | 17.4 |  |
| CC(=O)c1cc2ccccc2oc1=O [Compound 13, 3-Acetylcoumarin, reference compound] | 26 | 4.9 | 13 |  |
| O=c1cc(-c2ccccc2)oc2ccccc12 [Compound 14, Flavone, reference compound] | 19.3 | 26.3 | 46.7 |  |
| O=c1ccoc2ccccc12 [Compound 15, Chromone, reference compound] | 20.6 | 8.2 | 20.8 |  |
| N#Cc1coc2c(Cl)cc(Cl)cc2c1=O [Compound 16, 6,8-Dichloro-3-cyanochromone, reference compound] | 15.2 | 0 | 0 |  |
| O=C(O)Cc1ccc(C(=O)/C=C/c2ccccc2)cc1 [Compound 17, 4′-Carboxymethylchalcone] | 13.7 | 3.8 | 29.7 |  |
| O=C(/C=C/c1ccccc1)c1cccc(C(F)(F)F)c1 [Compound 18, 3′-(Trifluoromethyl)chalcone] | 42.2 | 87.4 | 96.9 |  |
| O=C(/C=C/c1ccc(Cl)cc1)c1ccc(Cl)cc1 [Compound 19, 4,4′-Dichlorochalcone] | 13.8 | 11.7 | 31.1 |  |
| Cc1ccc(/C=C/C(=O)c2ccc(C)cc2)cc1 [Compound 20, 4,4′-Dimethylchalcone] | 36.6 | 67.3 | 89.5 |  |
| Cc1ccc(C(=O)/C=C/c2ccccc2Cl)c(C)c1 [Compound 21, 2-Chloro-2′,4′-dimethylchalcone] | 29.6 | 25.2 | 73.4 |  |
| Cc1ccc(C(=O)/C=C/c2ccccc2)c(C)c1 [Compound 22, 2′,4′-Dimethylchalcone] | 41.7 | 80.4 | 87.2 |  |

| Molecule | inhibition at 1 µg/mL [4] [%] | inhibition at 3 µg/mL [1] [%] | inhibition at 6 µg/mL [2] [%] | also measured |
| --- | --- | --- | --- | --- |
| Cc1cccc(C)c1/C=C/C(=O)c1ccccc1 [Compound 23, 2,6-Dimethylchalcone] | 47.7 | 57.9 | 89.6 |  |
| Cc1ccc(C(=O)/C=C/c2ccc(OCc3ccccc3)cc2)cc1 [Compound 24, 4-Benzyloxy-4′-methylchalcone] | 18.4 | 5.1 | 17 |  |
| O=C(/C=C/c1ccc(OCc2ccccc2)cc1)c1ccc(Cl)cc1 [Compound 25, 4-Benzyloxy-4′-chlorochalcone] | 25.6 | 4.4 | 62.9 |  |
| Cc1ccc(C(=O)/C=C/c2ccc(C(C)C)cc2)cc1 [Compound 26, 4-Isopropyl-4′-methylchalcone] | 19.5 | 14.2 | 59.2 |  |
| Cc1ccc(C(=O)/C=C/c2ccc(Cl)cc2Cl)cc1 [Compound 27, 2,4-Dichloro-4′-methylchalcone] | 19.9 | 10.4 | 84.6 |  |
| Cc1ccc(C(=O)/C=C/c2c(Cl)cccc2Cl)cc1 [Compound 28, 2,6-Dichloro-4′-methylchalcone] | 73.7 | 98.2 | 98.1 |  |
| Cc1ccc(/C=C/C(=O)c2ccc(Cl)cc2)cc1 [Compound 29, 4′-Chloro-4-methylchalcone] | 29.9 | 40.2 | 58.5 |  |
| Cc1ccc(C(=O)/C=C/c2ccc(Cl)cc2)cc1 [Compound 30, 4-Chloro-4′-methylchalcone] | 22.3 | 24.5 | 46.5 |  |
| O=C(/C=C/c1c(Cl)cccc1Cl)c1ccccc1 [Compound 31, 2,6-Dichlorochalcone] |  | 92.9 | 97.5 | inhibition at 9 µg/mL [3]: 97.9% |
| O=C(/C=C/c1c(Cl)cccc1Cl)c1c(Cl)cccc1Cl [Compound 32, 2,2′,6,6′-Tetrachlorochalcone] |  | 74.9 | 97 | inhibition at 9 µg/mL [3]: 98.1% |
| O=C(/C=C/c1ccccc1)c1c(Cl)cccc1Cl [Compound 33, 2′,6′-Dichlorochalcone] | 2.23 | 51.1 | 88.7 |  |
| O=C(/C=C/c1c(F)c(F)c(F)c(F)c1F)c1c(F)c(F)c(F)c(F)c1F [Compound 34, 2,2′,3,3′,4,4′,5,5′,6,6′-Decafluorochalcone] | 31.1 | 88.6 | 88.6 |  |
| O=C(/C=C/c1c(F)c(F)c(F)c(F)c1F)c1ccccc1 [Compound 35, 2,3,4,5,6-Pentafluorochalcone] | 0 | 0 | 0 |  |
| O=C(/C=C/c1ccccc1)c1c(F)c(F)c(F)c(F)c1F [Compound 36, 2′,3′,4′,5′,6′-Pentafluorochalcone] | 6.6 | 55.6 | 88.7 |  |
| COc1cccc(OC)c1/C=C/C(=O)c1c(OC)cccc1OC [Compound 37, 2,2′,6,6′-Tetramethoxychalcone] | 36.2 | 49.2 | 39.2 |  |
| COc1cccc(OC)c1C(=O)/C=C/c1ccccc1 [Compound 38, 2′,6′-Dimethoxychalcone] | 25.8 | 39.8 | 63.5 |  |
| COc1cccc(OC)c1/C=C/C(=O)c1ccccc1 [Compound 39, 2,6-Dimethoxychalcone] | 31.8 | 56.4 | 60.8 |  |
| COc1cccc(OC)c1C(=O)/C=C/c1c(Cl)cccc1Cl [Compound 40, 2,6-Dichloro-2′,6′-dimethoxychalcone] | 23.2 | 43.7 | 52.3 |  |
| O=C(/C(Br)=C/c1ccccc1)c1ccccc1 [Compound 41, α-Bromo-Z-chalcone] |  |  |  | Percent Inhibition at a Specified Density (μg/ml): 1 [4]: 57.2%; Percent Inhibition at a Specified Density (μg/ml): 3 [1]: 75.7%; Percent Inhibition at a Specified Density (μg/ml): 6 [2]: 79.8% |
| O=C(C=Cc1ccco1)c1ccco1 [Compound 43, 1,3-Bis(2-furyl)propenone] |  |  |  | Percent Inhibition at a Specified Density (μg/ml): 1 [4]: 7.7%; Percent Inhibition at a Specified Density (μg/ml): 3 [1]: 8.1%; Percent Inhibition at a Specified Density (μg/ml): 6 [2]: 12.0% |
| O=C(C=Cc1ccccc1)c1ccco1 [Compound 44, 1-(2-Furyl)-3-phenylpropenone] |  |  |  | Percent Inhibition at a Specified Density (μg/ml): 1 [4]: 28.2%; Percent Inhibition at a Specified Density (μg/ml): 3 [1]: 57.7%; Percent Inhibition at a Specified Density (μg/ml): 6 [2]: 90.2% |
